Laboratory results reported in US20260272916A1, “RADIATION SENSITIVITY ENHANCING COMPOSITION CONTAINING ARIPIPRAZOLE AS ACTIVE INGREDIENT” (KOREA INSTITUTE OF RADIOLOGICAL & MEDICAL SCIENCES, priority 2018, published 2026).

Tests used:
MCF-7 cells [1] = assay: Cell viability at various aripiprazole concentrations alone or with radiation (EZ-Cytox); type: cell-based, human; conditions: 96 hours, FIG. 2
Experimental: In order to confirm the effect of aripiprazole on radiation sensitivity in cancer cells, a cell viability measurement experiment was performed in breast cancer cells having radiation resistance using the […] as follows. After the MCF-7 cells were adjusted to a concentration of 5000 cells/well, they were inoculated into a 96-well plate and pre-cultured for 24 hours. Thereafter, the medium was removed and aripiprazole ([…]) was treated alone or in combination with radiation. After 96 hours, the survival rate of cells was measured by Dogen's EZ-Cytox Cell Viability Assay kit.

MCF-7 cells [2] = conditions: 24 hours, FIG. 3
Experimental: The MCF-7 cells were treated with aripiprazole (1, 5, 10, 20 μM) alone or in combination with radiation. After 24 hours, after washing with PBS, proteins were extracted from the cells, and the degree of PARP cleavage was confirmed by Western blot.
(§1) After 24 hours, after washing with PBS, proteins were extracted from the cells, and the degree of PARP cleavage was confirmed by Western blot.
as §1

MCF-7 cells [3] = assay: Drug library screen for radiation sensitizers, EZ-Cytox cell viability; type: cell-based, human; set-up: dose or concentration left out as unconfirmed; conditions: 96 hours, FIG. 1
Experimental: MCF-7 cells, a human breast cancer cell line, were adjusted to a concentration of 5000 cells/well, then inoculated into a 96 well plate and pre-cultured for 24 hours. Subsequently, the medium was removed, and each drug in Enzo's drug library at a concentration of […] was treated alone or in combination with radiation. After 96 hours, the survival rate of cells was measured by Dogen's EZ-Cytox Cell Viability Assay kit.

MCF-7 cells [4] = conditions: MCF-7, combination with radiation vs single treatments, 24 hours, FIG. 4
Experimental: (§2) After the MCF-7 cells or U251 cells were adjusted to a concentration of 5000 cells/well, they were inoculated into a 96 well plate and pre-cultured for 24 hours. Thereafter, the medium was removed and aripiprazole was treated alone or in combination with radiation. After 24 hours, the degree of DNA fragmentation was confirmed using Roche's Cell Death Detection ELISA plus kit.
(§3) After 24 hours, the degree of DNA fragmentation was confirmed using Roche's Cell Death Detection ELISA plus kit.
as §3

U251 cells = assay: DNA fragmentation, Cell Death Detection ELISA plus kit; type: cell-based; conditions: U251, combination with radiation vs single treatments, 24 hours, FIG. 4
Experimental: as §2

For `O=C1CCc2ccc(OCCCCN3CCN(c4cccc(Cl)c4Cl)CC3)cc2N1` [aripiprazole, 7-{4-[4-(2,3-dichlorophenyl)-1-piperazinyl]-butoxy}-3,4-dihydro-2(1H)-quinolinone], the radiation sensitizing effect (MCF-7 cells [1]; MCF-7, aripiprazole 5, 10, 20 μM with radiation) was “excellent radiation sensitizing effect in a concentration-dependent manner”, the “survival rate reduction effect” value (MCF-7 cells [1]; MCF-7, aripiprazole 5, 10, 20 µM, combination with radiation vs alone) was “more excellent when treated in combination with radiation than the treatment with aripiprazole alone” and the “induction of apoptosis in radiation-treated cancer cells” value (MCF-7 cells [2]; MCF-7, aripiprazole 1, 5, 10, 20 μM with radiation) was “induce apoptosis in radiation-treated cancer cells in a concentration-dependent manner”. For the same compound, the “PARP cleavage induction effect” value (MCF-7 cells [2]; MCF-7, aripiprazole 1, 5, 10, 20 μM, combination with radiation vs alone) was “more excellent when treated in combination with radiation than treated aripiprazole alone”, the “survival rate of cells” value (MCF-7 cells [3]; MCF-7, drug treatment alone) was “no effect on the survival rate of cells” and the “survival rate of cells” value (MCF-7 cells [3]; MCF-7, in combination with radiation) was “lowers the survival rate of radiation-resistant cells”. The “DNA fragmentation inducing effect” value (MCF-7 cells [4]) was “superior to the effect of adding up each treatment” and the “DNA fragmentation inducing effect” value (U251 cells) was “superior to the effect of adding up each treatment”.
